Measurements: patent publication US10450610B2, “Single nucleotide polymorphisms (SNP) and association with resistance to immune tolerance induction” (University of Tennessee Research Foundation, priority 2008, dated 2019)
Where “and” joins values, the source holds several entries; their conditions need not be identical. Equal entries are not always repeated. Entries after “also recorded” stand apart in the source; their conditions may differ.

How the values were obtained:
spleen cells = assay: IFNγ production by spleen cells of fed, CII-immunized mice cultured with α1(II) CB peptide mixture (ELISA); assay type: in vivo; conditions: FIG. 8
From the text: To assess the effect of oral feeding of piroxicam to another group of mice fed Placebo or CII on spleen cell IFNγ production in a manner similar to the experiment in FIG. 7, four groups of mice (4 mice per group) were gavaged 8 days over 2 weeks with the following: Piroxicam a.m.—CII p.m.; Piroxicam a.m.—HAc p.m.; Saline a.m.—CII p.m.; or Saline a.m.—HAc p.m. After 1 week rest, all mice were immunized at the base of the tail with a CII—complete Freund's adjuvant emulsion. After 14 days, mice ere sacrificed, and spleen cells were isolated and set up in culture with PBS or α1(II)CB peptide mixture. After 72 h culture, harvested supernatants ere analyzed for IFNγ levels by ELISA.

Peyer's patch cells = assay: Peyer's patch cell / normal spleen cell co-culture proliferation with α1(II) CB peptide mixture (3H thymidine); assay type: in vivo; conditions: cells from mice fed piroxicam plus CII vs CII alone or piroxicam alone; p<0.03; FIG. 11
Method: To assess the status of the GALT in these three groups of mice, Peyer's patch cells were isolated from each animal, and set up (2.5×10^5/ml) in quadruplicate in co-culture with normal DBA/1 spleen cells (2×10^6/ml) with addition of recombinant murine IL2 (10 U/ml). PBS (as a control) or 50 μg/ml bovine α1(II) CB peptide mixture were added to quadruplicate wells in 96 round bottom well plates. After 3 days, cultures were pulsed with ^3H thymidine and harvested onto paper filters 24 h later. The “stimulation index” was calculated for each mouse by dividing the cpm of α1(II) CB peptide mixture culture by the cpm of the PBS control culture for each mouse. […] Thus, the marked increase in the stimulation index of Peyer's patch cells with DBA/1 spleen cells in the presence of α1(II) CB peptide mixture is quite exceptional and unexpected.

DBA/1 mice [1] = assay: Persistent NSAID effect on oral tolerance; arthritic joints after late CII immunization; assay type: in vivo; conditions: FIG. 10
Method: To determine whether chronic feeding of piroxicam with CII would have a persistent effect on tolerance induction to CII in DBA/1 mice, three groups of 10-11 DBA/1 mice were fed 8 doses of CII over two weeks (as above) on two occasions separated by 6 months: piroxicam (2.4 μg/gm) a.m. and Placebo (0.1M HAc, 100 μl) p.m.; Placebo (saline) a.m. and native bovine CII (10 μg) p.m; or piroxicam (2.4 μg/gm) a.m. and native bovine CII (10 μg) p.m. Three months after the second 8 dose feeding, each mouse was immunized (intradermally at base of tail) with 100 μg native bovine CII emulsified in complete Freund's adjuvant. Mice were placed in coded cages and scored twice weekly by a blinded observer for numbers of arthritic joints.

DBA/1 mice [2] = assay: NSAID inhibition of oral tolerance induction to collagen II; arthritic joints scored; assay type: in vivo
Method: To determine whether tolerance induction to orally fed bovine CII in DBA/1 mice would be abrogated by orally fed NSAID, 3 groups of 20-22 DBA/1 mice were fed (by gavage) eight doses (Monday, Tuesday, Thursday, and Friday for 2 weeks) of the following: Placebo (saline) in the a.m. and Placebo (0.1 M HAc) in the p.m.; Placebo (saline) in the a.m. and 10 μg native bovine CII in the p.m.; or piroxicam (2.4 μg/gm) in the a.m. and native bovine CII (10 μg) in the p.m. After 1 week, all mice were immunized (intradermally at the base of tail) with 100 μg of bovine CII emulsified in complete Freund's adjuvant. Animals were placed in coded cages and were scored by a blinded observer twice weekly for the number of arthritic joints (joints swollen, red, and/or deformed).

[3] = tested on: mesenteric lymph node cells; assay: Mesenteric lymph node cell proliferation with α1(II) CB peptide mixture; assay type: in vivo, mice; conditions: FIG. 12
PBMC = assay: Oral type I collagen in SSc patients; change in IL-10 production by antigen-stimulated PBMC; assay type: in vivo, human
Method: Samples from 26 patients from a trial of oral type I collagen (CI) in patients with diffuse systemic sclerosis (SSc) who took 500 μg/day CI for 12 months were collected. […] No patients were on DMARDs, biologies, NSAIDS or prednisone.
Patients with ROT1 AA, GG or GA genotype had IL-10 measured of IL-PBMC cultures stimulated by α1(I) CB mixture, α2(I) CB mixture, or native CI after receiving oral CI for 12 months minus the values of IL-10 in the supernatants of PBMC cultures stimulated with the same antigens at baseline before oral CI was administered to the SSc patients.

[4] = Phase II oral CI tolerance clinical trial in SSc; change in MRSS; assay type: in vivo, human; conditions: CI treated vs placebo treated completers, Late Phase ROT1AA patients deleted; Wilcoxon Rank Sum test; FIG. 16
From the text: In the Phase II oral CI tolerance clinical trial at 12 months, 79 SSc patients were genotyped of the 168 enrolled in the clinical trial. Seven of the 23 ROT1AA genotype were in the Late Phase category, and deleted from the results.

[5] = group mean, Genotype AA (N = 6)
[6] = individual SSc patients, Genotype AA, after 12 months oral CI 500 μg/day minus baseline
[7] = individual SSc patients, Genotype GG or GA, after 12 months oral CI 500 μg/day minus baseline
[8] = patients with ROT1 AA genotype, oral bovine CI 500 ug/day for 12 months

**Q.** For `CN1C(C(=O)Nc2ccccn2)=C(O)c2ccccc2S1(=O)=O` [piroxicam], which “IFNγ production by spleen cells cultured with α1(II) CB peptide mixture” value (spleen cells; fed with Placebo (alone)) is on record?
**A.** The value was “reduced production of IFNγ”.

**Q.** And the “IFNγ production by spleen cells stimulated with α1(II) CB peptide mixture” value (spleen cells; piroxicam orally fed to mice being fed oral CII)?
**A.** The value was “dramatic increase”.

**Q.** What about the “stimulation by α1(II) CB peptide mixture (stimulation index)” value (Peyer's patch cells) of the same compound?
**A.** Its value is “marked stimulation”.

**Q.** And the oral tolerance (DBA/1 mice [1])?
**A.** The oral tolerance was “persistent abrogation of oral tolerance”.

**Q.** And the “arthritic joints at week 7 and 8 after immunization” value (DBA/1 mice [1]; fed piroxicam plus CII 9 and 3 months before vs Placebo plus CII, p<0.04 at 8 weeks)?
**A.** The value was “significantly more arthritic joints”.

**Q.** And the “oral tolerance (OT) induction” value (DBA/1 mice [2]; DBA/1 mice fed CII, FIG. 7 / similar studies (data not shown))?
**A.** Its value is “abrogation of certain forms of oral tolerance”.

**Q.** And the arthritic joints (DBA/1 mice [2]; piroxicam 2.4 μg/gm a.m. + CII 10 μg p.m., eight doses, FIG. 7)?
**A.** Its arthritic joints is “significantly more arthritic joints”.

**Q.** And the “proliferation in response to α1(II) CB peptide mixture” value ([3]; mice fed either CII or piroxicam alone)?
**A.** The value was “did not proliferate”.

**Q.** What about the “stimulation by α1(II) CB peptide mixture” value ([3]; mice fed piroxicam plus CII) of the same compound?
**A.** The value was “marked stimulation”.

**Q.** Which “IL-10 production change, Bovine Native CI” value (PBMC; [5]) does the source give for type I collagen [CI] here?
**A.** Its value is -825 ± 338 pg/mL.

**Q.** What about the “IL-10 production change, Bovine α1(I) CB Mix” value (PBMC; [5]) of the same compound?
**A.** Its value is -622 ± 480 pg/mL.

**Q.** What about the “IL-10 production change, Bovine α2(I) CB Mix” value (PBMC; [5]) of the same compound?
**A.** Its value is -975 ± 627 pg/mL.

**Q.** What about the “IL-10 production change, Bovine α1(I) CB Mix” value (PBMC; group mean, Genotype GG or GA) of the same compound?
**A.** Its value is 30 ± 119 pg/mL.

**Q.** What about the “IL-10 production change, Bovine α2(I) CB Mix” value (PBMC; group mean, Genotype GG or GA) of the same compound?
**A.** The value was 22 ± 156 pg/mL.

**Q.** What about the “IL-10 production change, Bovine Native CI” value (PBMC; group mean, Genotype GG or GA (BB or BA)) of the same compound?
**A.** The value was 27 ± 97 pg/mL.

**Q.** And the “IL-10 production change, Bovine Native CI” value (PBMC; [6])?
**A.** Its value is −1726 pg/ml and +70 pg/ml and −920 pg/ml and −233 pg/ml and −1886 pg/ml and −253 pg/ml.

**Q.** What about the “IL-10 production change, Bovine α1(I) CB Mix” value (PBMC; [6]) of the same compound?
**A.** Its value is −342 pg/ml and −19 pg/ml and −611 pg/ml and −112 pg/ml and −2942 pg/ml and +295 pg/ml.

**Q.** What about the “IL-10 production change, Bovine α2(I) CB Mix” value (PBMC; [6]) of the same compound?
**A.** Its value is −1692 pg/ml and +28 pg/ml and −494 pg/ml and +490 pg/ml and −3736 pg/ml and −448 pg/ml.

**Q.** And the “IL-10 production change, Bovine Native CI” value (PBMC; [7])?
**A.** Its value is −135 pg/ml and +566 pg/ml and −334 pg/ml and +192 pg/ml (2×) and +103 pg/ml and +386 pg/ml and −1564 pg/ml and +233 pg/ml and +21 pg/ml and +237 pg/ml and +150 pg/ml and −94 pg/ml and +32 pg/ml and −282 pg/ml and +232 pg/ml and −52 pg/ml and +43 pg/ml and +269 pg/ml and +341 pg/ml.

**Q.** What about the “IL-10 production change, Bovine α1(I) CB Mix” value (PBMC; [7]) of the same compound?
**A.** The value was −314 pg/ml and +410 pg/ml and −104 pg/ml and −391 pg/ml and +529 pg/ml and +216 pg/ml and −968 pg/ml and +347 pg/ml and −397 pg/ml and +1364 pg/ml and +108 pg/ml and −205 pg/ml and −81 pg/ml and −561 pg/ml and +582 pg/ml and −46 pg/ml and −538 pg/ml and −227 pg/ml and +663 pg/ml and +221 pg/ml.

**Q.** And the “IL-10 production change, Bovine α2(I) CB Mix” value (PBMC; [7])?
**A.** Its value is −388 pg/ml and +203 pg/ml and −86 pg/ml and −180 pg/ml and +859 pg/ml and +546 pg/ml and −1000 pg/ml and +261 pg/ml and −2021 pg/ml and +1460 pg/ml and +145 pg/ml and −113 pg/ml and +141 pg/ml (2×) and −509 pg/ml and +5 pg/ml and +381 pg/ml and +252 pg/ml and −115 pg/ml and −415 pg/ml.

**Q.** And the “IL-10 production by PBMC cultured with native bovine CI and α2(I) CB mixture” value (PBMC; [8])?
**A.** Its value is “did not upregulate IL-10 production; also recorded: deficient upregulation of IL-10 production”.

**Q.** What about the “IL-10 production by PBMC cultured with α1(I) CB mixture” value (PBMC; [8]) of the same compound?
**A.** Its value is “trend toward defective production”.

**Q.** And the “change in MRSS at 12 months from baseline values” [4]?
**A.** The value was “significant difference”.
